Reference: US20080103209A1, “Compounds And Methods For Treating Non-Inflammatory Pain Using Ppar Alpha Agonists” (The Regents of The University of California, priority 2004, published 2008)

Tests used:
Swiss mice [1] = assay: Complete Freund's adjuvant-induced arthritis, hyperalgesia; assay type: in vivo, mouse; settings: 30 mg-kg^−1 s.c., 60 min before test, day 7 and 14 after CFA
Method: (§1) Mechanical hyperalgesia was determined by measuring paw withdrawal thresholds to an increasing pressure onto the dorsal surface of the paw using an analgesimeter (Ugo Basile, Italy) with a cut-off of 250 g. Withdrawal thresholds were measured on both the ipsilateral paw (inflamed or ligated) and contralateral paw (uninflamed or unligated) 60 min after subcutaneous drug administration.
(§2) Thermal hyperalgesia was assessed by the methods of Hargreaves (Hargreaves et al., Pain, 32, 77 (1988)) by measuring the latency to withdraw the hind paws from a focussed beam of radiant heat applied to the plantar surface, using an appropriate apparatus (Ugo Basile, Italy). The cut-off time was set at 30 sec. The mice were habituated to the apparatus for 10-15 min two days prior to the experiment.

PPARα mRNA = PPARα mRNA expression in inflamed mouse skin; assay type: in vivo; settings: topical to inflamed abdominal skin; PEA 450 μg, GW7647 755 μg
Swiss mice [2] = assay: Sciatic nerve ligation neuropathy, mechanical and thermal hyperalgesia; assay type: in vivo, mouse; settings: for mechanical and thermal pain thresholds in the non-ligated paw of neuropathic mice: data not shown; for neuropathic hypersensitivity (mechanical and thermal pain thresholds), ligated limb: single s.c. dose day 7 and 14 after surgery, 60 min before test, PEA, GW7647 30 mg-kg^−1, gabapentin 60 mg-kg^−1
Method: To examine whether PPARα agonists modulate the persistent pain hypersensitivity associated with nerve injury, peripheral neuropathy was produced in mice by partially ligating the left sciatic nerve, a surgical procedure that results in the development of mechanical and thermal hyperalgesia in the operated limb (Bennett et al., Pain, 33, 87 (1988)).
Sciatic nerve ligation was performed essentially following the method of Bennett and Xie (Bennett et al., Pain 33, 87 (1988)). Briefly, male Swiss mice were anesthetized with sodium pentobarbital, the left sciatic nerve was exposed at mid-thigh level through a small incision and one-third to one-half of the nerve thickness was tightly ligated with a silk thread. The wound was closed with a single muscle suture and skin clips, and dusted with streptomycin powder. In sham-operated animals, the nerve was exposed but not ligated.
as §1, §2

Swiss mice [3] = assay: Prolonged carrageenan-induced paw oedema, hyperalgesia and oedema; assay type: in vivo, mouse; settings: 30 mg-kg^−1 s.c. on the third day of carrageenan treatment
Excerpt: The ability of PPARα agonists to attenuate hyperalgesia was further explored in two mouse models of subchronic inflammation: (i) experimental arthritis elicited by intradermal injection of complete Freund's adjuvant (CFA) into the base of the tail (Whiteley et al., Current Protocols in Pharmacology, 2, 5.5.1-5.5.5. (2001)); and (ii) prolonged oedema induced by repeated carrageenan injections into the paw (Otterness et al., Methods Enzymol, 162, 320 (1988)). […] Both drugs, but not their vehicle, suppressed mechanical (FIG. 7A, 7B) and thermal (data not shown) sensitivity.
Carrageenan-induced paw oedema. An inflammatory response was initiated in the left hindpaw of male Swiss mice by injecting %-carrageenan (1% weight-vol^−1 in sterile saline, 50 μl) using a 27-gauge needle, and maintained it by repeating the injections on day 3, 7 and 14 after the first administration. Paw oedema was measured using a mouse plethysmometer (Ugo Basile, Italy) or by weighing the excised paw.
as §1

PPARγ = target: T1, PPARγ (Homo sapiens, UniProt P37231); assay: PPARγ transactivation assay; assay type: cell-based; settings: concentrations as high as 20 μM
T1 construct: expressed in transfected cells
T1 sequence (P37231 1-505): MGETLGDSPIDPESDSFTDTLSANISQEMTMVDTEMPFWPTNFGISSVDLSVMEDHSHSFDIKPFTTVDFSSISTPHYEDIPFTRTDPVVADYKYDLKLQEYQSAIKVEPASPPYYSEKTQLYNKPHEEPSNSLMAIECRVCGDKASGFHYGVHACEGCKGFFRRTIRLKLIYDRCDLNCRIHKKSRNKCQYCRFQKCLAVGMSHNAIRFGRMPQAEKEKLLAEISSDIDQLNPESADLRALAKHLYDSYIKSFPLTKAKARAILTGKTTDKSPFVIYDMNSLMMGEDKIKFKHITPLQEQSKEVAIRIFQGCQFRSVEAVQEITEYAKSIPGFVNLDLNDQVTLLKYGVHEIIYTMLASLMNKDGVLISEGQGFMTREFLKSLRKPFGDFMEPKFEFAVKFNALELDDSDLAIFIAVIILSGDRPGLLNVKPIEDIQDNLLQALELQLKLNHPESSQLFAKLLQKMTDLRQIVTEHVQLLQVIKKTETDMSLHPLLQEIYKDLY
Method: (§3) Transactivation assays were performed as previously described [Fu et al., Nature 425:90-93 (2003)].

PPARβ/δ = target: T2, PPARβ/δ (Homo sapiens, UniProt Q03181); assay: PPARβ/δ transactivation assay; assay type: cell-based; settings: concentrations as high as 20 μM
T2 construct: expressed in transfected cells
T2 sequence (Q03181 1-441): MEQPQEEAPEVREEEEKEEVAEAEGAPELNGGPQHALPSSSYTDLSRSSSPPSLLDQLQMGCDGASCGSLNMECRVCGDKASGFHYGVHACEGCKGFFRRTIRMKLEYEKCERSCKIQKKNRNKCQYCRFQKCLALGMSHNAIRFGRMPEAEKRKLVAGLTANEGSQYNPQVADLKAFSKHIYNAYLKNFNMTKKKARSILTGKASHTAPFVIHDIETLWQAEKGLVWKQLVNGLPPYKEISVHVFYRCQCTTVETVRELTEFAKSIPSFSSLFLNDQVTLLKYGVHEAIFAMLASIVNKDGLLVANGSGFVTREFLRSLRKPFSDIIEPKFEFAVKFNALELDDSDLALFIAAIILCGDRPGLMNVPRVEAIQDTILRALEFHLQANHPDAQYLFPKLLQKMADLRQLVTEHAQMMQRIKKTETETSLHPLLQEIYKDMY
Method: as §3

## CC(C)(Sc1ccc(CCN(CCCCC2CCCCC2)C(=O)NC2CCCCC2)cc1)C(=O)O [GW7647]
Swiss mice [1]
  mechanical and thermal sensitivity in CFA arthritis: suppressed
PPARα mRNA
  PPARα mRNA expression: increase in PPARα mRNA expression
Swiss mice [2]
  mechanical and thermal pain thresholds in the non-ligated paw of neuropathic mice: did not affect
  neuropathic hypersensitivity (mechanical and thermal pain thresholds), ligated limb: mimicked
Swiss mice [3]
  mechanical sensitivity thresholds, carrageenan: normalized mechanical sensitivity thresholds
  paw oedema, carrageenan: no effect

## CCCCCCCCCCCCCCCC(=O)NCCO [PEA, palmitoylethanolamide]
PPARγ
  PPARγ activation: did not activate
Swiss mice [1]
  mechanical and thermal sensitivity in CFA arthritis: suppressed
PPARβ/δ
  PPARβ/δ activation: did not activate
PPARα mRNA
  PPARα mRNA expression: increase in PPARα mRNA expression
Swiss mice [2]; 30 mg-kg^−1 s.c. once a day for 14 consecutive days from surgery
  mechanical sensitivity thresholds after repeated dosing, vs vehicle-treated mice: significantly higher
Swiss mice [2]
  mechanical and thermal pain thresholds in the non-ligated paw of neuropathic mice: did not affect
  neuropathic hypersensitivity (mechanical and thermal pain thresholds), ligated limb: reversal of neuropathic hypersensitivity
Swiss mice [2]; s.c.
  dose dependence of antihyperalgesic response (mechanical withdrawal, day 14): dose-dependent
Swiss mice [3]
  mechanical sensitivity thresholds, carrageenan: normalized mechanical sensitivity thresholds
  paw oedema, carrageenan: no effect
